Read-outs that look alike come from different tables or passages of the source.

Data set [1] has as its system Caenorhabditis elegans. The experiment in a line: C. Elegans Nematode Screening Test and Evaluation (in-vitro). The conditions noted are these: Caenorhabditis elegans. The method in brief: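 Worms (10-15 per well) in buffer with E. coli food, ampicillin and mycostatin; compound added in DMSO, 2-3 replicates per rate. Incubated 5-6 days at 20° C. Population development scored against untreated wells, noting effects such as reduced egg hatch or molting disruption.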

Data set [2] concerns lesion nematode. The data set can be described thus: Lesion Nematode Test. The format is in vivo. As to conditions: Table 5, read-out: Percent Control; for pest or weed control at 2.5 ppm: rate 2.5 ppm. In outline: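 Run as the stunt nematode test but on pea seedlings; compounds applied as dust formulations (initial and residual activity) or acetone/water formulations (systemic activity), with untreated samples as reference. Percent control derived by formula.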

Data set [3] deals with stunt nematode. The experiment in a line: Stunt Nematode Test. The class given is in vivo. The conditions noted are these: 672 h, Table 4a; rate 5 ppm; read-out: Percent Control.
The test system of data set [4] is root-knot nematode. The data set can be described thus: Systemic Activity (basipetal, foliar spray) against root-knot nematode. The format is in vivo, Meloidogyne incognita. The conditions noted are these: 336 h, read-out: Percent Control; for pest or weed control at 1250 ppm: Table 8, rate 1250 ppm; for pest or weed control at 2000 ppm: Table 8, rate 2000 ppm. The protocol:
(§1) Compounds of this invention were tested as follows for nematicidal and anthelmintic activity as dust formulations (initial and residual activity) and as acetone/water formulations (systemic activity). The formulations are described above.
Compounds of the invention were tested for basipetal systemic activity against the root-knot nematode. In this test, tomato plants are grown in 10.2 cm diameter fiber pots containing steam-pasteurized soil mix (50%, soil, 50% sand) until 4-6 true leaves appear. Three of the pots are then placed on a turntable in a spray hood and the plants sprayed with 50 ml of water/acetone solution containing the test compound. The soil surface is covered during the spraying to prevent spraying of the soil. After treatment, the potted plants are placed in a lighted drying chamber. The plants are then grown in a growth chamber at 25° C. for three days and inoculated with a standard nematode culture by incorporating the inoculum into the top cm of soil in the pots. The plants are returned to the growth chamber for about two weeks at which time the pots are allowed to dry until the plants begin to wilt. The roots are shaken free of soil and the degree of galling (swelling) noted as compared to galling of untreated control plants. The results are expressed as Knot Index and Percent Control as defined in the initial root-knot nematode activity tests reported above in Table 2.

The test system of data set [5] is root-knot nematode. The experiment in a line: Soil Mobility against root-knot nematode. The format is in vivo, Meloidogyne incognita. As to conditions: 336 h. In outline:
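Soil mobility of the nematicidal test material was evaluated by placing treated, nematode-infested soil in 8 cm plastic pots stacked above two or more pots of untreated infested soil, each containing a 10 cm^3 sand layer and filter paper discs. Fifteen cm of water was dripped through, pots drained 16-18 hours, then were planted with cucumber or tomato seedlings and scored for Percent Control.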

Data set [6] has as its system cyst nematode. The data set can be described thus: Cyst Nematode Test. The conditions noted are these: Table 6; rate 5 ppm; read-out: Percent Control. The format is in vivo. The protocol:
as §1
The procedures was substantially the same as described in the stunt nematode test except soybean seedlings were used. "Percent Control" (Table 6 appended) is as defined in the stunt nematode test results.

The subject of data set [7] is root-knot nematode (Meloidogyne incognita). The experiment in a line: Initial Root-Knot Nematicidal Activity. The conditions noted are these: 336 h, read-out: Percent Control; for pest or weed control at 0.078 ppm: Table 2, Application Rate 0.078 ppm; for pest or weed control at 0.156 ppm: Table 2, Application Rate 0.156 ppm; for pest or weed control at 0.625 ppm: Table 2, Application Rate 0.625 ppm; for pest or weed control at 1.25 ppm: Table 2, Application Rate 1.25 ppm; for pest or weed control at 2.5 ppm: Table 2, Application Rate 2.5 ppm. The format is in vivo. In outline: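 Compound incorporated into Meloidogyne incognita-infested soil at 10 ppm to 0.078 ppm, then planted with tomato or cucumber seedlings. Root galling scored two weeks after planting as a knot index and converted to percent control, given as averages.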

For data set [8], the system named is root-knot nematode. The data set can be described thus: Residual Root-Knot Nematicidal Activity. As to conditions: read-out: Percent Control. The class given is in vivo, Meloidogyne incognita. In outline: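 Soil received 5% dust formulation at 5 and 10 ppm test compound and was held in a greenhouse, then infested with root-knot nematode eggs and larvae at 1, 2 and 4 weeks post-treatment. Cucumber or tomato seedlings were planted and scored about two weeks after infestation for Knot Index and Percent Control.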

Data set [9] has as its system corn seedling. The experiment in a line: Phytotoxicity noted in Stunt Nematode Test. The class given is in vivo. The arrangement: key: *: Some phytotoxicity. The conditions noted are these: Table 4a; rate 5 ppm. An excerpt:
The procedure was substantially the same as in the initial root-knot nematode tests described above except that rates of application of formulated compound were 2.5 and 5 ppm in soil containing a corn seedling, with subsequent inoculation of the soil with combined larvae and adult stunt nematodes. The samples were evaulated approximately four weeks after infestation. The results (Tables 4 and 4a appended) indicate good control at the test application rates as compared with untreated samples where no control was observed. "Percent control" means the difference between average population counts between untreated and treated samples, divided by average population count of untreated sample, multiplied by 100.

Setting [10] is: Table 9 screen, read-out: Percent Inhibition of Reproduction.
The mark [11] stands for this setting: Table 9 screen, read-out: Percent Mortality.
Setting [12] is: Table 7a, 5% dust, 5 ppm, BOTTOM container, read-out: Percent Control.
The mark [13] stands for this setting: Table 7a, 5% dust, 5 ppm, MIDDLE container, read-out: Percent Control.
Where [14] appears, read: Table 7a, 5% dust, 5 ppm, TOP container, read-out: Percent Control.
[15] abbreviates: 168 h, Table 3a, 5% dust, 5 ppm, inoculation 1 week post-treatment.
[16] abbreviates: 336 h, Table 3a, 5% dust, 5 ppm, inoculation 2 weeks post-treatment.
The mark [17] stands for this setting: Table 2, Application Rate 0.312 ppm.
[18] abbreviates: 672 h, Table 3a, 5% dust, 5 ppm, inoculation 4 weeks post-treatment.

As for `C=CCSc1nnc(SCCC(F)=C(F)F)s1` [Compound 31, 2-(2-propenylthio)-5-(3,4,4-trifluoro-3-butenylthio)-1,3,4-thiadiazole], the inhibition at 5 ppm in data set [1] (setting [10]) was found to be 38%. In addition, the mortality at 5 ppm in [1] (setting [11]) is 0%. The pest or weed control at 2.5 ppm is 11% in [2] and 99% in data set [7]. The pest or weed control at 5 ppm in data set [3] is 52%; in data set [5] (setting [12]), 50%; in data set [5] (setting [13]), 86%; in data set [5] (setting [14]), 98%; in [6], 7%; in [8] (setting [15]), 97%. The pest or weed control at 5 ppm stood at 97% in [8] (setting [16]) and 95% in data set [8] (672 h). For the same compound, the pest or weed control at 1250 ppm in data set [4] (foliar) stood at 0%. Also, the pest or weed control at 2000 ppm in data set [4] (foliar) stood at 71%. Also, the pest or weed control at 0.078 ppm in data set [7] was found to be 0%. For the same compound, the pest or weed control at 0.156 ppm in [7] stood at 13%. Moreover, in [7], the pest or weed control at 0.625 ppm turned out to be 78%. In data set [7], the pest or weed control at 1.25 ppm came to 96%.
As for `O=[N+]([O-])c1ccc(CSc2nnc(SCCC(F)=C(F)F)s2)cc1` [Compound 35, 2-(4-nitrophenylmethylthio)-5-(3,4,4-trifluoro-3-butenylthio)-1,3,4-thiadiazole], in data set [1] (setting [10]), the inhibition at 5 ppm is 100%. The mortality at 5 ppm in data set [1] (setting [11]) came to 100%; in data set [1] (Table 10 evaluation, read-out: Percent Mortality) it was 100%. Also, the inhibition at 1.25 ppm in data set [1] (Table 10 evaluation, 1.25 ppm, read-out: Percent Inhibition of Reproduction) was 100%. Further, in data set [1] (Table 10 evaluation, 1.25 ppm, read-out: Percent Mortality), the mortality at 1.25 ppm was found to be 100%. For the same compound, the inhibition at 2.5 ppm in data set [1] (Table 10 evaluation, 2.5 ppm, read-out: Percent Inhibition of Reproduction) was determined as 100%. For the same compound, the mortality at 2.5 ppm in [1] (Table 10 evaluation, 2.5 ppm, read-out: Percent Mortality) came out at 100%. In addition, the pest or weed control at 5 ppm in data set [3] turned out to be 77%; in data set [5] (setting [12]), 0%; in data set [5] (setting [13]), 50%; in data set [5] (setting [14]), 99%; in [6] it was 0%; in data set [8] (setting [15]) it was 99%. Also, the pest or weed control at 5 ppm in [8] (setting [16]) was determined as 96%; in data set [8] (setting [18]), 84%. The pest or weed control at 2000 ppm in data set [4] (foliar) came out at 0%. Also, the pest or weed control at 0.078 ppm in [7] was found to be 0%. Besides, in [7], the pest or weed control at 0.156 ppm was 6%. For the same compound, the pest or weed control at 0.312 ppm in data set [7] (setting [17]) was found to be 67%. For the same compound, the pest or weed control at 1.25 ppm in data set [7] was 98%. Further, the pest or weed control at 2.5 ppm in data set [7] is 100%.
For `FC(F)=C(F)CCSc1nnc(SCc2cccs2)s1` [Compound 36, 2-(2-thienylmethylthio)-5-(3,4,4-trifluoro-3-butenylthio)-1,3,4-thiadiazole], the pest or weed control at 1.25 ppm in [2] (rate 1.25 ppm) was 2%; in [7] it was 99%. The values for the pest or weed control at 0.625 ppm in data set [2] (rate .625 ppm) and in [7] were 0% and 96%, respectively. Moreover, the pest or weed control at 1250 ppm in data set [4] is 17%. The pest or weed control at 2000 ppm in data set [4] (foliar) stood at 97%. Further, the pest or weed control at 5 ppm in data set [5] (setting [12]) amounted to 0%; in data set [5] (setting [14]), 97%; in data set [5] (read-out: Percent Control, Table 7a, 5% dust, 5 ppm, MIDDLE container), 17%; in data set [6], 37%; in data set [8] (setting [15]), 98%; in data set [8] (setting [16]), 99%. Also, in [8] (672 h), the pest or weed control at 5 ppm amounted to 95%. Besides, the pest or weed control at 0.078 ppm in [7] was determined as 0%. Also, the pest or weed control at 0.156 ppm in data set [7] is 25%. The pest or weed control at 0.312 ppm in data set [7] (setting [17]) was 69%. Moreover, the pest or weed control at 2.5 ppm in data set [7] was 100%.
As for `FC(F)=C(F)CCSc1nnc(Cc2ccccc2F)o1` [Compound 44, 2-(2-fluorophenylmethyl)-5-(3,4,4-trifluoro-3-butenylthio)-1,3,4-oxadiazole], the inhibition at 5 ppm in [1] (setting [10]) amounted to 25%. The mortality at 5 ppm in data set [1] (setting [11]) amounted to 0%. Also, the pest or weed control at 2.5 ppm worked out at 88% in data set [2] and 98% in [7]. For the same compound, the pest or weed control at 5 ppm in data set [3] amounted to 75%; in [5] (setting [12]), 96%; in [5] (setting [13]), 100%; in [5] (setting [14]) it was 100%; in [6], 59%; in data set [8] (setting [15]), 100%. Also, the pest or weed control at 5 ppm in [8] (setting [16]) and in data set [8] (setting [18]) was 100% in each case. In data set [7] (setting [17]), the pest or weed control at 0.312 ppm was determined as 50%. The pest or weed control at 0.625 ppm in [7] turned out to be 76%. In data set [7], the pest or weed control at 1.25 ppm came out at 86%.
As to `FC(F)=C(F)CCSc1nnc(Cc2ccc(F)cc2)o1` [Compound 45, 2-(4-fluorophenylmethyl)-5-(3,4,4-trifluoro-3-butenylthio)-1,3,4-oxadiazole], in data set [1] (setting [10]), the inhibition at 5 ppm amounted to 25%. Also, the mortality at 5 ppm in data set [1] (setting [11]) stood at 0%. Moreover, the results for the pest or weed control at 2.5 ppm in data set [2] and in data set [7] were 41% and 99%, respectively. Also, the pest or weed control at 5 ppm in [3] is 80%; in data set [5] (setting [12]), 83%; in data set [5] (setting [13]), 97%; in [5] (setting [14]) it was 98%; in data set [8] (setting [15]), 99%; in data set [8] (setting [16]), 100%. The pest or weed control at 5 ppm in data set [8] (setting [18]) worked out at 98%. The Some phytotoxicity result in [9] was “*”. Further, the pest or weed control at 0.625 ppm in data set [7] was determined as 99%. Further, in data set [7], the pest or weed control at 1.25 ppm was 99%. Moreover, the pest or weed control at 0.312 ppm in data set [7] came to 95%.
As to `FC(F)=C(F)CCSc1nnc(Cc2ccc(F)cc2F)o1` [Compound 46, 2-(2,4-difluorophenylmethyl)-5-(3,4,4-trifluoro-3-butenylthio)-1,3,4-oxadiazole], the pest or weed control at 2.5 ppm in data set [2] turned out to be 77%; in data set [7], 99%. In addition, the pest or weed control at 5 ppm is 65% in data set [3]; 78% in data set [5] (setting [12]); 97% in data set [5] (setting [13]); 96% in data set [5] (setting [14]); 99% in data set [8] (setting [15]); 100% in [8] (setting [16]). Moreover, the pest or weed control at 5 ppm in data set [8] (setting [18]) is 99%. Moreover, the Some phytotoxicity entry in [9] is recorded as “*”. The pest or weed control at 0.312 ppm in data set [7] (setting [17]) is 85%. The pest or weed control at 0.625 ppm in data set [7] was 98%. Further, the pest or weed control at 1.25 ppm in data set [7] is 98%.

What is called inhibition is how much of the control response was suppressed. The mortality is the percentage killed.
